According to the supplement of paper PMC10307832:

Columns and labels:
Assay in all cases: relative viability (nuclei count vs DMSO), 5 days (fraction); higher = more cells survive
Dabrafenib + Bortezomib = compound: CC(C)(C)c1nc(-c2cccc(NS(=O)(=O)c3c(F)cccc3F)c2F)c(-c2ccnc(N)n2)s1 [Dabrafenib] + CC(C)C[C@H](NC(=O)[C@H](Cc1ccccc1)NC(=O)c1cnccn1)B(O)O [Bortezomib] (partner 0.002 µM)
In short: (§1)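 Five library-drug doses in √10 steps were combined with a fixed anchor-drug dose, or a single drug was given alone, by pin tool to lung cancer cell lines in 1536-well plates the day after seeding. Nuclei were stained and counted after 5 days. Relative viability is the nuclei count in treated wells over that in vehicle wells, taken as the median of duplicate plates.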

Dabrafenib + Decitabine = compound: CC(C)(C)c1nc(-c2cccc(NS(=O)(=O)c3c(F)cccc3F)c2F)c(-c2ccnc(N)n2)s1 [Dabrafenib] + Nc1ncn([C@H]2C[C@H](O)[C@@H](CO)O2)c(=O)n1 [Decitabine] (partner 2 µM)
In short: as §1

VX-702 + Luminespib = compound: NC(=O)c1ccc(N(C(N)=O)c2c(F)cccc2F)nc1-c1ccc(F)cc1F [VX-702] + CCNC(=O)c1noc(-c2cc(C(C)C)c(O)cc2O)c1-c1ccc(CN2CCOCC2)cc1 [Luminespib] (partner 0.01 µM)
In short: as §1

VX-702 + Dasatinib = compound: NC(=O)c1ccc(N(C(N)=O)c2c(F)cccc2F)nc1-c1ccc(F)cc1F [VX-702] + Cc1nc(Nc2ncc(C(=O)Nc3c(C)cccc3Cl)s2)cc(N2CCN(CCO)CC2)n1 [Dasatinib] (partner 0.075 µM)
In short: as §1

Row | Cell Line | relative viability (Dabrafenib + Bortezomib; first compound 0.003 µM) | relative viability (Dabrafenib + Bortezomib; first compound 0.009487 µM) | relative viability (Dabrafenib + Bortezomib; first compound 0.03 µM) | relative viability (Dabrafenib + Bortezomib; first compound 0.09487 µM) | relative viability (Dabrafenib + Bortezomib; first compound 0.3 µM) | relative viability (Dabrafenib + Decitabine; first compound 0.003 µM) | relative viability (Dabrafenib + Decitabine; first compound 0.009487 µM) | relative viability (Dabrafenib + Decitabine; first compound 0.03 µM) | relative viability (Dabrafenib + Decitabine; first compound 0.09487 µM) | relative viability (Dabrafenib + Decitabine; first compound 0.3 µM) | relative viability (VX-702 + Luminespib; first compound 0.02 µM) | relative viability (VX-702 + Luminespib; first compound 0.2 µM) | relative viability (VX-702 + Luminespib; first compound 0.6325 µM) | relative viability (VX-702 + Luminespib; first compound 2 µM) | relative viability (VX-702 + Dasatinib; first compound 0.02 µM) | relative viability (VX-702 + Dasatinib; first compound 0.2 µM) | relative viability (VX-702 + Dasatinib; first compound 0.6325 µM) | relative viability (VX-702 + Dasatinib; first compound 2 µM)
1 | UMC-11 | 1.05 | 0.637 | 0.647 | 0.681 | 0.735 | 0.707 | 0.603 | 0.558 | 0.383 | 0.434 | 0.993 | 0.865 | 0.805 | 1.11 | 0.456 | 0.379 | 0.386 | 0.492
2 | NCI-H1437 | 0.299 | 0.529 | 0.518 | 0.534 | 0.516 | 0.582 | 0.55 | 0.626 | 0.513 | 0.43 | 1.17 | 1.14 | 1.14 | 1.4 | 0.407 | 0.34 | 0.439 | 0.467
3 | EKVX | 0.77 | 1.1 | 0.969 | 0.891 | 1.12 | – | 0.38 | 0.29 | 0.44 | 0.353 | 0.899 | 0.822 | 0.878 | 0.942 | 0.62 | 0.491 | 0.527 | 0.436
4 | COR-L 105 | 0.721 | 0.843 | 0.69 | 0.738 | 0.895 | 0.6 | 0.691 | 0.666 | 0.681 | 0.675 | 0.688 | 0.715 | 0.78 | 0.91 | 0.315 | 0.402 | 0.313 | 0.3
5 | NCI-H650 | – | 0.865 | 0.645 | 0.494 | 0.453 | – | 0.324 | 0.33 | 0.303 | 0.251 | 0.661 | – | 0.78 | 0.961 | 0.481 | – | 0.534 | 0.533
6 | NCI-H1648 | – | – | – | – | – | 0.599 | 0.463 | – | 0.372 | 0.495 | – | – | – | – | – | – | – | –
7 | NCI-H2009 | 0.342 | 1.06 | 0.907 | 0.554 | 0.517 | 0.359 | 0.38 | 0.397 | 0.339 | 0.358 | 1.13 | 1.07 | 1.19 | 1.3 | 0.35 | 0.401 | 0.429 | 0.452
8 | LXF-289 | 0.949 | 1.01 | 1.18 | 0.969 | 1.13 | 0.353 | 0.353 | 0.372 | 0.397 | 0.351 | 0.689 | 0.732 | 0.659 | 0.789 | 0.234 | 0.199 | 0.212 | 0.225
9 | NCI-H647 | – | 0.778 | 0.789 | 1.19 | 1.03 | 0.445 | 0.366 | 0.308 | 0.358 | 0.234 | 0.216 | 0.478 | 0.143 | 0.17 | 0.151 | 0.171 | 0.211 | 0.246
10 | NCI-H1666 | 0.806 | – | 0.957 | 0.859 | 0.814 | 0.69 | 0.813 | 0.789 | 0.674 | 0.751 | 0.954 | – | 1.07 | 1.01 | 0.765 | – | 0.876 | 0.641
